Experiments:
acute pancreatitis = assay: Caerulein-induced acute pancreatitis; type: in vivo, C57BL/6 mice; conditions: orally twice daily at 20 mg/kg for 6 days
Description: Induction of Pancreatitis. The acute pancreatitis was induced by hourly intraperitoneal injections of caerulein (50 μg/kg/body weight) for up to 8 h, 36 C57BL/6 mice (20-25 g) were randomly divided into 4 groups (n=5). Compound 28 were administered orally twice daily at 20 mg/kg for 6 days. The matched vehicle controls (0.5% Methocel™, 0.1% Tween 80 in 100 mM citrate buffer, pH 3) were also administered twice daily for 6 days. On the 6th day, mice were induced pancreatitis after compound administration and after the last caerulein injection, mice were administered compound. The sham-treated group was performed with the same as vehicle controls except that saline was administered instead of caerulein. Mice were killed at 1 h after the last caerulein injection. Tissue was harvested immediately after sacrificing the animals. A portion of pancreas samples were frozen in liquid nitrogen for preparation of homogenate. For histology, pancreas was fixed in 4.5% formalin for paraffin embedding and stained with hematoxylin and eosin. Serum samples were prepared and stored at −20 C. […] Compound 28 were administered orally twice daily at 20 mg/kg. The activity inhibition data of the compound-treated groups are shown as the percentage activity of a sham mean (set to 100% activity). Values are means±SEM. […]

CatC [1] = molecular target: T1, CatC (Rattus norvegicus, UniProt P80067); assay: In vivo study, CatC activity in rat bone marrow lysates; conditions: dose dependent
T1 construct: bone marrow cells were immediately extracted from femurs and tibias; from tissue; host or cells: Sprague Dawley rat bone marrow cell lysate
Description: (§1) C57BL/6 mice (20-25 g) were randomly divided into 4 groups (n=10) and kept at 5 animals per cage. Compound 31 was administered orally twice daily at 6.7, 20, 60 mg kg-1 day-1 for 6 days. The matched vehicle controls (0.5% Methocel™, 0.1% Tween 80 in 100 mM citrate buffer, pH 3) were also administered twice daily for 6 days. Mice were weighed and the dose adjusted accordingly on each day. Sprague Dawley (280-300 g) were conducted by intraperitoneal injection twice daily at 1, 5, 20 mg kg-1 day-1 for 8 days. Blood was sampled through eye puncture at 14 h intervals after the end of the administration. Then mice were terminated and bone marrow cells were immediately extracted from femurs and tibias using ice cold RPMI 1640 medium. Blood cells and bone marrow cells were lysed according to the protocols previously described 8 with some modifications. […]
(§2) The analysis was performed as previously described. […] Synthetic peptide substrates (Gly-Phe-AFC(SMBiochemicals) for CatC, methoxysuccinyl-Ala-Ala-Pro-Val-AMC (Sigma) for NE, minobenzoyl-Val-Ala-Asp-Cys-Ala-Asp-Gin-ethylenediamine 2,4-dinitrophenyl (Peptide Synthetics) for Pr3, and N-succinyl-Ala-Ala-Pro-Phe-ONA (Sigma) for CatG) were added before plates were read at fluorescence or absorbance. Assay kinetics was monitored for up to 90 min. Data were analyzed using GraphPad Prism (GraphPad Software, Inc., San Diego, Calif., USA).

Pr3 = assay: In vivo study, Pr3 activity in mice bone marrow and blood lysates; conditions: dose dependent
Description: as §1, §2

NE [2] = assay: In vivo study, NE activity in rat bone marrow lysates; conditions: dose dependent
Description: as §1, §2

CatG [3] = assay: In vivo study, CatG activity in mice bone marrow and blood lysates; conditions: dose dependent
Description: as §1, §2

rhCatC (Cathepsin C) = rhCatC (Cathepsin C) (Homo sapiens, UniProt P53634); assay: In Vitro CatC Enzyme Assay; type: biochemical; conditions: read-out: Cat C Enzy (Cathepsin C inhibitory activity, IC50)
CatG [4] = assay: In vivo study, CatG activity in rat bone marrow lysates; conditions: dose dependent
Description: as §1, §2

CatC [5] = molecular target: T2, CatC (Mus musculus, UniProt P97821); assay: In vivo study, CatC activity in mice bone marrow and blood lysates; conditions: dose dependent
T2 construct: Blood cells and bone marrow cells were lysed; from tissue; host or cells: C57BL/6 mouse bone marrow and blood cell lysates
Description: as §1, §2

NE [6] = assay: In vivo study, NE activity in mice bone marrow and blood lysates; conditions: dose dependent
Description: as §1, §2

T2 sequence (P97821 25-134 limits assumed): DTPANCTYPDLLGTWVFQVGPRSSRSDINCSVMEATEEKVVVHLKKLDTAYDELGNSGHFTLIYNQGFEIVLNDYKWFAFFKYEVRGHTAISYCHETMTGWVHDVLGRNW
T2 sequence (P97821 231-393 limits assumed): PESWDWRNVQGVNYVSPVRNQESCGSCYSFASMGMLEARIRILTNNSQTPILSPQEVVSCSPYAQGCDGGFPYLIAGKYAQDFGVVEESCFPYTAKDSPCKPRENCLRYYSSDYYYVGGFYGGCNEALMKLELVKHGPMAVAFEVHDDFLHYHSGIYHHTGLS
T2 sequence (P97821 394-462 limits assumed): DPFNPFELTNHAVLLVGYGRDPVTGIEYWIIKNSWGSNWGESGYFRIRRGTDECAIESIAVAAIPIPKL
rhCatC (Cathepsin C), sequence (P53634 25-134 limits assumed): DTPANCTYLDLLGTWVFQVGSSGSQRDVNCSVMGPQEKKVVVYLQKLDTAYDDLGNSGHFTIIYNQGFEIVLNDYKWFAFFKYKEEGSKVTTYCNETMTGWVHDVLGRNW
rhCatC (Cathepsin C), sequence (P53634 231-394 limits assumed): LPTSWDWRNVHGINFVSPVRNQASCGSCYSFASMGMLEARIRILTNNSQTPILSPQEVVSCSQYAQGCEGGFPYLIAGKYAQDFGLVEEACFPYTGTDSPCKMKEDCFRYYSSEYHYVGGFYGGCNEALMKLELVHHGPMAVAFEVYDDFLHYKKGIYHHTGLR
rhCatC (Cathepsin C), sequence (P53634 395-463 limits assumed): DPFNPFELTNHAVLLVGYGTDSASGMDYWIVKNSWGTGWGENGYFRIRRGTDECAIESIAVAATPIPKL
T1 sequence (P80067 25-134 limits assumed): as the sequence (P97821 25-134 limits assumed) above, with S23H, S24P, D27H, A35P, V42I, L54V, H59Y, R86K, H88S, T89R counted along it
T1 sequence (P80067 230-393 limits assumed): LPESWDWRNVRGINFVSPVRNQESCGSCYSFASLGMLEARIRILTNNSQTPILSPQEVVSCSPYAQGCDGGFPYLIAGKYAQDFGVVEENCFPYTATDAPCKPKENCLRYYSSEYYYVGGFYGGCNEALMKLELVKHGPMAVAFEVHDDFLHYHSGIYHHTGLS
T1 sequence (P80067 394-462 limits assumed): as the sequence (P97821 394-462 limits assumed) above, with R20K, I26L, E27D, I31V, N38Q, V61M counted along it

activation of CatC (CatC [1]): inhibited the activation
IC50 (rhCatC (Cathepsin C)): 3 to 300 nM
activation of CatC (CatC [5]; mice blood): inhibited the activation
activation of CatC (CatC [5]; mice bone marrow): inhibited the activation
SMILES: C=CC(=O)Nc1cc(Oc2nc(Nc3ccc(N4CCN(C)CC4)cc3OC)ccc2N2CCCCC2)ccc1C [Compound 28, N-(5-((6-((2-methoxy-4-(4-methylpiperazin-1-yl)phenyl)amino)-3-(piperidin-1-yl)pyridin-2-yl)oxy)-2-methylphenyl)acrylamide]
severity of acute pancreatitis (acute pancreatitis): reduced the severity of acute pancreatitis
activation of Pr3 (Pr3; mice blood): inhibited the activation
activation of Pr3 (Pr3; mice bone marrow): inhibited the activation
activation of NE (NE [2]): inhibited the activation
activation of CatG (CatG [3]; mice blood): inhibited the activation
activation of CatG (CatG [3]; mice bone marrow): inhibited the activation
activation of CatG (CatG [4]): inhibited the activation
activation of NE (NE [6]; mice blood): inhibited the activation
activation of NE (NE [6]; mice bone marrow): inhibited the activation

Reference: patent US20210114983A1, “Cathepsin C inhibitors” (National Institute of Biological Sciences, Beijing, priority 2018, published 2021)
